In the NIST ThermoML archive (doi:10.1016/j.jct.2008.03.011):

Tests used:
[1] = xn = mol fraction of the nth substance listed; conditions: 101 kPa, Liquid; for speed of sound: Sing-around technique in a fixed-path interferometer
[2] = refractive index (Na D-line) (dimensionless); xn = mol fraction of the nth substance listed; conditions: 101 kPa, Liquid, Standard Abbe refractometry

CCC(C)=O [butanone] + C1CCCCC1
Conditions | mass density, 293.15 K [kg/m3] | mass density, 298.15 K [kg/m3] | mass density, 303.15 K [kg/m3] | refractive index, 293.15 K | refractive index, 298.15 K | refractive index, 303.15 K | speed of sound, 293.15 K [m/s] | speed of sound, 298.15 K [m/s] | speed of sound, 303.15 K [m/s]
[1], x2 = 0 | 805.6 | 799.7 | 794.9 | – | – | – | 1212 | 1192 | 1163
[1], x2 = 0.0472 | 802.6 | 796.4 | 791.5 | – | – | – | 1212 | 1190 | 1159
[1], x2 = 0.0979 | 799.8 | 793.7 | 788.8 | – | – | – | 1213 | 1190 | 1159
[1], x2 = 0.1986 | 794.7 | 788.8 | 784 | – | – | – | 1212 | 1190 | 1158
[1], x2 = 0.2973 | 790.3 | 784.8 | 779.9 | – | – | – | 1212 | 1190 | 1158
[1], x2 = 0.3975 | 786.6 | 781.4 | 776.4 | – | – | – | 1216 | 1192 | 1161
[1], x2 = 0.497 | 783.7 | 778.4 | 773.5 | – | – | – | 1221 | 1198 | 1166
[1], x2 = 0.6045 | 781 | 776.1 | 771.1 | – | – | – | 1229 | 1204 | 1172
[1], x2 = 0.6922 | 779.5 | 774.6 | 769.6 | – | – | – | 1236 | 1212 | 1179
[1], x2 = 0.7984 | 778.2 | 773.4 | 768.5 | – | – | – | 1248 | 1222 | 1188
[1], x2 = 0.8978 | 777.8 | 773.1 | 768.2 | – | – | – | 1261 | 1236 | 1200
[1], x2 = 0.9476 | 778 | 773.2 | 768.5 | – | – | – | 1269 | 1244 | 1207
[2], x2 = 0 | – | – | – | 1.37879 | 1.37618 | 1.37355 | – | – | –
[2], x2 = 0.0472 | – | – | – | 1.38079 | 1.37811 | 1.3754 | – | – | –
[2], x2 = 0.0979 | – | – | – | 1.3829 | 1.38016 | 1.37748 | – | – | –
[2], x2 = 0.1986 | – | – | – | 1.38711 | 1.38436 | 1.38159 | – | – | –
[2], x2 = 0.2973 | – | – | – | 1.39144 | 1.38857 | 1.38588 | – | – | –
[2], x2 = 0.3975 | – | – | – | 1.39592 | 1.3929 | 1.39029 | – | – | –
[2], x2 = 0.497 | – | – | – | 1.40055 | 1.39774 | 1.39494 | – | – | –
[2], x2 = 0.6045 | – | – | – | 1.40575 | 1.4026 | 1.40014 | – | – | –
[2], x2 = 0.6922 | – | – | – | 1.41006 | 1.40723 | 1.40443 | – | – | –
[2], x2 = 0.7984 | – | – | – | 1.4153 | 1.4125 | 1.4097 | – | – | –
[2], x2 = 0.8978 | – | – | – | 1.42041 | 1.41769 | 1.41473 | – | – | –
[2], x2 = 0.9476 | – | – | – | 1.42316 | 1.42035 | 1.41746 | – | – | –
